Measured values: patent publication US8722376B2, “Firefly luciferase” (Olympus Corporation, priority 2011, dated 2014)
Residue numbers refer to the chain shown, from its start. Names and notes keep the numbering of the source. Read-outs that look alike come from different tables or passages of the source.

How the values were obtained:
[1] = test system: CBG (luciferase derived from known click beetles); test: Km of CBG luciferase (luminescence kinetic analysis); assay type: biochemical, click beetle; conditions: 0.1 M Tris-HCl (pH 8.0), MgSO4, measured in a similar manner
Experimental: (§1) A solution of 0.1 M Tris-HCl (pH 8.0) containing each of the purified luciferase, 4 mM of ATP, and 8 mM of MgSO4 was connected to the standard pump of the luminometer, and the measurements was carried out at the same time as addition of 50 μl of the solution to the well. A Luminescensor (ATTO) was used for the measurements. Measurements were repeated 3 times for each luciferin concentration.
(§2) The peak intensity of the obtained photo count value was plotted with respect to luciferin concentration S, defining the initial rate as V. The plots were subjected to curve fitting of Michaelis Menten type, thereby giving Km values. The curve fitting was performed by a nonlinear least-squares method, and the search of the parameter was performed by a Newton method.
(§3) 4-3. Measurement of Km Value with Respect to ATP
(§4) Under various ATP concentrations, the luminescent intensity of the obtained luciferase was measured. Based on the results, Km values with respect to ATP was determined.
(§5) Various […] types of ATP solutions were prepared by adding ATP to 0.1 M Tris-HCl (pH 8.0). These solutions contain ATP at final concentration of 5, 10, 20, 40, 80, 160, 320, 480, 640, 800, 1280, 1600, or 1920 μM. These ATP solutions were each injected into 96-hole in a microplate at a volume of 50 μl. […]
(§6) Table 1 also indicates Km values for known firefly luciferases, measured in a similar manner. […]

[2] = test system: ELuc (luciferase derived from known click beetles); test: Km of ELuc luciferase (luminescence kinetic analysis); assay type: biochemical, click beetle; conditions: 0.1 M Tris-HCl (pH 8.0), MgSO4, measured in a similar manner
Experimental: as §1, §2, §3, §4, §5, §6

[3] = test system: CBR (luciferase derived from known click beetles); test: Km of CBR luciferase (luminescence kinetic analysis); assay type: biochemical, click beetle; conditions: 0.1 M Tris-HCl (pH 8.0), MgSO4, measured in a similar manner
Experimental: as §1, §2, §3, §4, §5, §6

[4] = test system: SP1 luciferase, Luciola sp1 (Malaysian firefly, genus Luciola), wild type, SEQ ID NO: 1; test: Km of SP1 luciferase (luminescence kinetic analysis); assay type: biochemical; conditions: for Km: 0.1 M Tris-HCl (pH 8.0), MgSO4, Michaelis Menten curve fitting; for Km values with respect to ATP and D-luciferin, compared with known luciferases: FIG. 2, SP1 luciferase versus known luciferases
Experimental: The measurements were carried out ten times for each sample, and the average of absorbency was used for the calculation.
Various 12 types of ATP solutions were prepared by adding ATP to 0.1 M Tris-HCl (pH 8.0). These solutions contain ATP at final concentration of 5, 10, 20, 40, 80, 160, 320, 480, 640, 800, 1280, 1600, or 1920 μM. These ATP solutions were each injected into 96-hole in a microplate at a volume of 50 μl. […] Measurement was repeated 3 times for each ATP concentration.
The peak intensities of the obtained photon count value were plotted with respect to ATP concentration S, with an initial rate V. The plots were subjected to curve fitting of Michaelis Menten type, thereby giving Km value. The curve fitting was performed by a nonlinear least-squares method, and the search of the parameter was performed by a Newton method.

[5] = Measurement of luminescent intensity of purified luciferase compared with Rhodamine 6G and P. pyralis luciferase; assay type: biochemical; conditions: purified enzymes, integration of light 300 nm to 650 nm for 10 seconds
Experimental: Rhodamine 6G was dissolved into 0.1 M citric acid/0.2 M Na2HPO4 (pH 4.0) solution. The Rhodamine 6G solution was centrifuged for 1 minute at 15,000 rpm, and the supernatant was collected. The collected supernatant is diluted with 0.1 M citric acid/0.2 M Na2HPO4 solution 1000 fold, and the absorbance thereof was measured. Measurement was carried out by NanoVue (GE Healthcare). The measurement at 530 nm was repeated 5 times, and the average absorbance 0.048 was obtained. The concentration of the original Rhodamine 6G solution was calculated by using ε value of Rhodamine (1.16×10^5 mol^−1cm^−1), and the value 414 μM was obtained. The solution was diluted with 0.1 M citric acid/0.2 M Na2HPO4 solution (pH 4.0) to prepare 30 μM of a diluted solution.
Solution 1 having the following composition was prepared with use of the diluted solution.
Solution 2 was prepared by dissolving bis (2,4,6-trichlorophenyl)oxlate (TCPO) so that the final concentration thereof is 3 mM.
100 μl of solution 1 was injected for each well of 96-hole microplate. Measurement was started at the same time as addition of 50 μl of solution 2 with use of a pump, and integration value of photon counts for 10 seconds from addition of solution 2 was obtained. […]
A concentration of the obtained sample was measured by a colorimetric method, and the concentrations of P. pyralsis luciferase and SP1 luciferase were confirmed. […]

HeLa cells = test: Luminescence activity of SP1 mutants expressed in HeLa cells, corrected by hRluc internal standard; assay type: cell-based; conditions: 90 minutes after D-luciferin addition, corrected by hRluc luminescence at 10 minutes
Description: The fragment of the nucleic acid having the base sequence of SEQ ID NO: 35 was inserted into between SgfI site and PmeI site of a pF9A CMV hRluc-neo FlexiR vector (Promega). The fragment of the nucleic acid having the base sequence of SEQ ID NO: 36 was inserted into between SgfI site and PmeI site of another pF9A CMV hRluc-neo FlexiR vector. Two types of the obtained expression vectors were each introduced into HeLa cells, and mutants were expressed.
The luminescence intensity of two types of cells expressing mutants was detected by using a cell expressing the original SP1 luciferase without mutations as a comparison. Here, the luminescence intensity of each Hela cell was corrected using the luminescence based on hRluc gene of pF9A CMV hRluc-neo FlexiR vector (Promega) as an internal standard.

HeLa cell = test: Luminescent intensity of SP1 luciferase expressed in a mammal cell; assay type: cell-based; conditions: expression in HeLa cell, 1 mM D-luciferin, integration for 10 seconds
Experimental: SP1 luciferase was expressed in a HeLa cell, and the luminescent intensity in a cell was measured.
For introduction of SP1 luciferase gene, four types of expression vectors were prepared. Nucleic acids each containing a gene prepared by deleting recognition sequences of BamHI and EcoRI from the original SP1 luciferase gene obtained from Luciola sp1 (SEQ ID NO: 3), a gene further optimized for expression in a mammal cell (SEQ ID NO: 4), and two types of genes to which Kozak sequence was further added (SEQ ID NOS: 29 and 30) were each inserted into the multi-cloning site between BamHI and EcoRI of pcDNA3.1(+) vector (Invitrogen). Further, for comparison, a nucleic acid containing a known P. pyralis luciferase gene optimized for expression in a mammal cell was inserted into pcDNA3.1(+) vector similarly.
Five types of plasmids obtained in such a manner described above were each subjected to gene transfection to a HeLa cell by a lipofection method, and D-MEM culture medium was exchanged after 24 hours. […] The luminescent intensities shown in FIG. 4 are integration values for 10 seconds.

[6] = D-luciferin, read-out: Km for ATP
[7] = read-out: Km for D-luciferin, ATP

**Q.** Which Km [1, 6] does the source give for `Nc1ncnc2c1ncn2[C@@H]1O[C@H](COP(=O)(O)OP(=O)(O)OP(=O)(O)O)[C@@H](O)[C@H]1O` [ATP] here?
**A.** Its Km is 58.4 µM.

**Q.** And the Km [2, 6]?
**A.** Its Km is 182 µM.

**Q.** What about the Km [3, 6] of the same molecule?
**A.** Its Km is 47.1 µM.

**Q.** And the Km [4, 6]?
**A.** The Km was 195 µM.

**Q.** And the “Km values with respect to ATP and D-luciferin, compared with known luciferases” value [4]?
**A.** Its value is “higher Km values”.

**Q.** For `O=C(O)[C@H]1CSC(c2nc3ccc(O)cc3s2)=N1` [D-luciferin], which Km [1, 7] is on record?
**A.** The Km was 1.44 µM.

**Q.** And the Km [2, 7]?
**A.** Its Km is 12.7 µM.

**Q.** And the Km [3, 7]?
**A.** Its Km is 33.3 µM.

**Q.** And the “Km values with respect to ATP and D-luciferin, compared with known luciferases” value [4]?
**A.** The value was “higher Km values”.

**Q.** And the Km [4, 7]?
**A.** Its Km is 44.6 µM.

B1: SP1 luciferase: luciferase of SEQ ID NO: 1 derived from Malaysian firefly Luciola sp1 (protein, listed as Luciola sp.)
chain: MNNMDDGEHIVVGPQPFYPVEEGSAGTQLLKYLKQYSKLGAIAFSNAHTKVDISYAEYLDTSVRLAQALINYGIPIDGRIALCSENCEEFYFPVLAGLYIGAGVAPTNEIYTLRELVHSLGISKPTIVFSSKKGLEKVITVQKTVTCIKTIVILDSKVDYQGYDCLETFIKKYLPAGFSVENFIPREVNRKEQVALVMNSSGSTGLPKGVQITHEGAVTRFSHARDPIYGNQVSPGTAILTIVPFHHGFGMFTNLGYLTCGYRIVMLTKFDEELFLKTLADYKCTSVILVPTLFAILSKSVLLEKYDLSNLVEIASGGAPLAKEVGEAVARRFNLPGIRQGYGLTETTSAIIITPEGDDKPGASGKIVPLFRAKVVDLDTQKTLGPNRRGEICVKGPMLMKGYVDDPVATSQIIDKDGWLHTGDIGYFDEDKHFFIVDRLKSLIKYKGYQVPPAELESVLLQHPDIFDAGVAGLPDPLAGELPGAVVVLEKGRHMTEQQVMDYVAGQVSNAKRLRGGVRFVDEVPKGLTGKIDSKAIREILKSPKAKM
**Q.** With B1 as the molecule, how does the “luminescent intensity in comparison to that of P. pyralis luciferase” value [5] read?
**A.** The value was 4.9 times.

B2: SP1 mutant 2: SP1 luciferase with mutations E356R and V368A; amino acid sequence SEQ ID NO: 38 (protein)
chain: B1 chain with E356R, V368A
modifications: Luciola sp. mutant 2
**Q.** For B2, which “luminescence intensity in comparison to the original SP1” value (HeLa cells) is on record?
**A.** The value was “increased”.

B3: SP1 mutant 1: SP1 luciferase with mutations D438G, I532R and E356R; amino acid sequence SEQ ID NO: 37 (protein)
chain: B1 chain with E356R, D438G, I532R
modifications: Luciola sp. mutant 1
**Q.** For B3, which “luminescence intensity in comparison to the original SP1” value (HeLa cells) is on record?
**A.** Its value is “increased”.

B4: SP1 luciferase codon optimized: SP1 luciferase expressed from gene optimized for expression in a mammal cell (SEQ ID NO: 4) (protein, listed as Luciola sp.)
chain: B1 chain
**Q.** With B4 as the molecule, how does the “increase of luminescent intensity in comparison to SP1 luciferase without codon optimization” value (HeLa cell) read?
**A.** The value was 16.2 times.

**Q.** What about the “luminescent intensity in comparison to that of P. pyralis luciferase after codon optimization” value (HeLa cell) of the same molecule?
**A.** The value was 1.7 times.
